Measurements: US6498164B1, “Barbituric acid derivative and preventive and therapeutic agent for bone and cartilage containing the same” (Aventis Pharma S.A., priority 1998, dated 2002)

Test system: osteocytes containing osteoclasts
Experiment: Pit formation assay (bone resorption inhibition on ivory slices)
Type: cell-based, ICR mice
Details: compound 1 × 10^−5 M, ivory piece, 3 days culture; for inhibition at 10 µM: Mus musculus, Osteoclast, 72 h, 0% = no compound with rPTH 1×10^−8 M, 100% = no resorption cavity, read-out: Inhibiting rate; for Number of resorption cavity (mean ± SD): rPTH 1×10^−8 M
Method: ICR mice 11-12 days old (Charles River) were subjected to euthanasia through ether anesthesia, and disinfected by dipping in 70% ethanol immediately. Subsequently, a femur and a shank of a mouse was removed, chopped in an -MEM culture medium (Flow Labs Corp.) containing 5% FBS (Irving Scientific Corp.), 100 U/mL penicillin, and 100 µg/mL streptomycin. Supernatant obtained by pipetting was collected, washed with culture medium solution, suspended in a solution containing 5% FBS and -MEM culture medium to yield osteocytes containing osteoclasts. Supernatant of osteocyte suspending solution was taken 3 minutes after standing still to pass through meshes (Cell Strainer, 70 m, Falcon Corp.). The filtrate was adjusted to the concentration of 1 107 cells/mL to use for pit formation assay.
(2) Test by the pit formation assay
An ivory piece was cut into slices in 150 m thickness by using a precision, low speed cutter (Buehler Corp.) and punched to make a cylinderial holes in 6 mm diameter. The ivory piece was dipped in 70% ethanol, treated by sonication for 5 minutes twice, and washed with sterilized PBS three times and with culture medium twice. The ivory piece was put in pits of a 96-pit culture plate (Falcon Corp.), 100 μl of culture medium, that contains a chemical compound of the present invention adjusted to a concentration of 2×10^−5 M, was poured into each pit, and 100 μL of culture medium, that contains 1×10^7 osteocytes/mL previously prepared, into each pit (the final concentration of the compound was 1×10^−5 M), and finally cultivation was carried out in an incubator under 37° C. and 10% CO2 for 3 days. Then cells on an ivory piece were removed in 2 M sodium hydroxide solution, washed with water and methanol to stain resorption cavity with Coomassie Brilliant Blue and count numbers of absorbed cavities under a microscope. The inhibition rate of bone resorption was calculated on the basis that resorption cavity was assumed 0% in the case of no addition of the compound under the presence of rPTH (1×10^−8 M) in the solution and the case of no resorption cavity was assumed 100%. A good result was yielded in the same experiment with variation of resorption cavity numbers among experimental groups due to a difference among proportions of various cell in the solution, in which osteocytes were suspended, and also among the lot numbers of used animals.

CC(C)CC(=O)C1C(=O)N(Cc2ccccc2)C(=O)N(Cc2ccccc2)C1=O [Compound No. 1, 1,3-Dibenzyl-5-(3-methyl-1-oxobutyl)barbituric Acid]
inhibition at 10 µM: 99.2% | Number of resorption cavity (mean ± SD): 1.0 ± 0.5

O=C(Cc1ccccc1)C1C(=O)N(Cc2ccccc2)C(=O)N(Cc2ccccc2)C1=O [Compound No. 2, 1,3-Dibenzyl-5-(phenylacetyl)barbituric Acid]
inhibition at 10 µM: 99% | Number of resorption cavity (mean ± SD): 2.2 ± 0.6

O=C(Cc1cccs1)C1C(=O)N(Cc2ccccc2)C(=O)N(Cc2ccccc2)C1=O [Compound No. 3, 1,3-Dibenzyl-5-(2-thienylacetyl)barbituric Acid]
inhibition at 10 µM: 96.7% | Number of resorption cavity (mean ± SD): 7.0 ± 1.7

CC(C)CCN1C(=O)C(C(=O)CC(C)C)C(=O)N(CCC(C)C)C1=O [Compound No. 4, 1,3-Bis(3-methylbutyl)-5-(3-methyl-1-oxobutyl)barbituric Acid]
inhibition at 10 µM: 90.6% | Number of resorption cavity (mean ± SD): 21.1 ± 4.3
